The text below walks through data of US7470446B2, “Method and system for supplying amino acids or chemical derivatives in liquid form to ruminant livestock” (Archer-Daniels-Midland Company, priority 2000, dated 2008).

The data set can be described thus: Plasma lysine response after liquid lysine drench. It is filed as in vivo, bovines. To be noted: cattle (bovine), oral, 60 g; for concentration at 148 min: 148 minutes (so in the source). The text has this: The following study, performed using liquid lysine supplied in a 60-gram amino acid dose in a liquid drench to two bovines, gave the following response curves in the plasma level of the lysine, which is an index of its absorption by the animals, and illustrates that the esophageal muscle reflex is active: […]

The mark [1] stands for this setting: Cow 1, 60-gram dose, read-out: Cow 1, plasma lysine.
[2] abbreviates: Cow 2, 60-gram dose, read-out: Cow 2, plasma lysine.

Read-outs that look alike come from different tables or passages of the source.

As for `NCCCC[C@H](N)C(=O)O` [liquid lysine, lysine], the concentration at 0 min (Cow 1, 60-gram amino acid dose, read-out: Cow 1, plasma lysine) was determined as 10 µg/mL. For the same compound, under setting [1], the concentration at 80 min came out at 11.3 µg/mL, the concentration at 148 min came out at 19.7 µg/mL, the concentration at 160 min came to 12.4 µg/mL and the concentration at 240 min was 16.1 µg/mL. Under setting [1], the concentration at 360 min was found to be 17.3 µg/mL, the concentration at 420 min worked out at 17.5 µg/mL, the concentration at 540 min worked out at 19.3 µg/mL and the concentration at 600 min was determined as 15.4 µg/mL. Also, under setting [1], the concentration at 24 h turned out to be 14.4 µg/mL. Besides, the concentration at 0 min (Cow 2, 60-gram amino acid dose, read-out: Cow 2, plasma lysine) is 10.7 µg/mL. For the same compound, under setting [2], the concentration at 80 min was 10.8 µg/mL, the concentration at 148 min was found to be 20 µg/mL, the concentration at 160 min was determined as 13.7 µg/mL and the concentration at 240 min worked out at 22.4 µg/mL. Under setting [2], the concentration at 360 min came out at 24.2 µg/mL, the concentration at 420 min amounted to 24.2 µg/mL, the concentration at 540 min came out at 17 µg/mL and the concentration at 600 min came to 14.2 µg/mL. Moreover, the concentration at 24 h under setting [2] amounted to 12 µg/mL.
